Data: EP3831399A1, “ANTI-NOROVIRUS AGENT” (DENSO CORPORATION, priority 2018, dated 2020)
“Also recorded” adds a separate entry of the source.

Tests used:
Type in all cases: cell-based
[1] = test system: feline calicivirus (FCV); test: Virucidal effect in presence of organic material (BSA); settings: 1,000 µg/ml
Procedure: • Virus: using feline calicivirus (FCV) as a replacement for norovirus • Used medicine and concentration: 1,000 µg/ml of sodium hypochlorite or coccomyxa sp. KJ strain MGDG preparation • Organic material: using BSA (albumin) 5%
• (1) Feline calicivirus (FCV) was prepared in 2×10^5 PFU/ml. • (2) An MGDG preparation or sodium hypochlorite is prepared at a concentration four times the final assay concentration ([…]). • (3) Bovine serum albumin (BSA) is prepared as an organic material at a concentration four times the final concentration (5%). • (4) Virus fluid: the MGDG preparation or sodium hypochlorite and BSA are mixed at a ratio of 2 : 1 : 1. A sample prepared by adding PBS instead of the MGDG preparation or sodium hypochlorite was used as a control. • (5) After being left at room temperature for 1 minute, 10 minutes, and 60 minutes, 100-fold dilution with PBS is performed. The CRFK cells cultured in a monolayer fashion are added in an amount of 100 µl/culture dish to a 35 mm culture dish, and an infection treatment is performed at room temperature for 1 hour. • (6) A 1% SeaPlaque Agarose-added MEM culture medium is overlaid. • (7) After 2 days, the appeared plaque is immobilized and stained with a crystal violet solution. • (8) The number of plaques is counted under a microscope.

[2] = test system: Influenza A virus (IFV); test: Virucidal activity of each MGDG fraction, influenza virus; settings: 50 µg/ml, 37°C, 60 minutes; MDCK cell
[3] = test system: Herpes simplex virus type 2 (HSV-2); test: Virucidal activity of each MGDG fraction, herpes simplex virus type 2; settings: 50 µg/ml, 37°C, 60 minutes, Vero cell
Procedure: (1) A coccomyxa sp. KJ strain-derived MGDG preparation was subjected to HPLC, and each peak was separated, thereby obtaining five types of MGDG refined products (MGDG1, MGDG2, MGDG3, MGDG4, and MGDG5). Furthermore, the MGDG preparation before separation (containing MGDG1 to MGDG5) was prepared as a mix product. (2) Each sample was mixed with respect to each virus fluid (2×10^5 PFU/ml) so that the final concentration became 50 µg/ml, and the resultant product was left to stand still at 37°C for 60 minutes.
(3) The mixed liquid of (2) is diluted in the MEM culture medium without foetal bovine serum, a culture medium for plaque assay is then overlaid, and culturing is performed at 37°C for 2 to 3 days. (4) After checking appearance of plaques, the cells were immobilized and stained with a neutral red solution, and the number of plaques was measured under a microscope. The virus survival rate of each sample was calculated based on the appearance number of virus appearing in the case of not adding the sample (100%). The virucidal performance of each sample was evaluated from the virus survival rate.

Molecule: OCl [sodium hypochlorite]
- inactivation effect in the presence of the organic material, change versus its absence ([1]; 5% BSA): significantly reduced
- rate of virus inactivation ([1]; organic material (BSA) did not exist, one minute): 100%

Molecule: monogalactosyldiacylglycerol in which a constituent fatty acid is C18:3 and C18:2 [MGDG5]
- virucidal (inactivation) activity (virus survival rate) [2]: significant inactivation effect; also recorded: high virucidal activity
- virucidal (inactivation) activity (virus survival rate) [3]: significant inactivation effect
- virucidal (inactivation) activity (virus survival rate) ([3]; listed as fifth peak of the KJ strain MGDG preparation): high virucidal activity
